Patent EP4129319A1, “PORE-FORMING ANTIMICROBIAL PEPTIDES” (priority 2021, dated 2023)
Like-named read-outs stand apart in the source and are kept apart here. Ends that are not written are not given here.

Tests used:
[1] = Calcein leakage assay; type: biochemical; settings: for Extent of leakage (in percentage) at increasing peptide-to-lipid ratio (mol/mol) 1:100 / Extent of leakage (in percentage) at increasing peptide-to-lipid ratio (mol/mol) 1:10 / Extent of leakage (in percentage) at increasing peptide-to-lipid ratio (mol/mol) 1:20 / Extent of leakage (in percentage) at increasing peptide-to-lipid ratio (mol/mol) 1:50: calcein leakage, POPC:POPG (1:1 mol/mol) LUVs; for Extent of leakage (in percentage) at increasing peptide-to-lipid ratio (mol/mol) 1:100: peptide-to-lipid ratio 1:100 (mol/mol); for Extent of leakage (in percentage) at increasing peptide-to-lipid ratio (mol/mol) 1:10: peptide-to-lipid ratio 1:10 (mol/mol); for Extent of leakage (in percentage) at increasing peptide-to-lipid ratio (mol/mol) 1:20: peptide-to-lipid ratio 1:20 (mol/mol); for Extent of leakage (in percentage) at increasing peptide-to-lipid ratio (mol/mol) 1:50: peptide-to-lipid ratio 1:50 (mol/mol)
Procedure: (§1) Chemicals. […] (Prague, Czech Republic), and Caslo ApS (Kongens Lyngby, Denmark). […] The bacterial stock was stored at -80°C.
Calcein leakage assay. Pore-forming activity of the peptides was tested by their ability to leak the self-quenching fluorescent dye calcein entrapped within POPC:POPG (1:1 mol/mol) large unilamellar vesicles (LUVs). After mixing DiD to the lipid mixture (in the ratio 1:500 mol/mol), a thin lipid film was created by evaporating of the chloroform, traces of which were removed by desiccating overnight. The lipid film was then dissolved in calcein buffer, followed by vigorous vortexing. The lipid suspension was subsequently subjected to 10 freeze-thaw cycles. To obtain uniform LUVs, the sample was passed 50 times back and forth through an extruder stacked with 100 nm pore size polycarbonate membrane filter. Afterwards, the untrapped calcein was removed on a HiTrap Desalting Column (with Sephadex G-25 Superfine resin) by washing with PBS buffer. The concentration of the lipid suspension was then adjusted to 0.02 mM. The concentration of the peptide solution was 0.1 mM. The inventors monitored the peptide-induced release of calcein from LUVs by the increase in fluorescence intensity after adding increasing amounts of peptides to the LUVs under constant stirring at 25 °C. The investigated range of peptide/lipid molecular ratio was from 1:100 to 1:10. The excitation and emission wavelengths were set to 495 nm and 520 nm, respectively. Maximum fluorescence intensity was obtained by disrupting all the vesicles in the end by adding 10% Triton X-100. Experiments were performed in triplicates with independently prepared lipid vesicles.

[2] = system: Gram-negative Escherichia coli TOP10 strain; type: cell-based; settings: for Antibacterial activity (MIC in µM) E. coli TOP10: broth microdilution assay; for MIC against E. coli: 24 h at 37 °C, dilution series 50 to 0.1 µM
Procedure: as §1
(§2) Broth microdilution assay. Antimicrobial activity of the peptides was investigated against Gram-negative Escherichia coli TOP10 strain and Gram-positive Staphylococcus carnosus CCM 4838T using broth microdilution assay, based on which the inventors determined the bacterial minimum inhibition concentration (MIC). After cross streaking with bacteria, the petri dishes (with MHA) were incubated for 24 h at 37 °C. Overnight grown cultures were then sub-cultured for 4-6 h at 37 °C in test tubes containing MHB. The sub-cultured solutions were subsequently diluted to a standard concentration of 10^6 colony forming units (CFU) per mL. Cell counts were determined by measuring the optical density at 600 nm. In a flat-bottomed 96 well plate, the inventors prepared a dilution series for the peptides and for the reference antibiotic ampicillin from 50 to 0.1 µM concentration, which was then inoculated with bacteria and incubated for 24 h at 37 °C. Growth control wells were free from peptides or ampicillin to show the viability of the bacteria, and sterility control wells were free from bacterial inoculation to verify the sterility of the medium. The bacterial growth was visually evaluated based on the turbidity. MIC was determined as the lowest concentrated well where no visible bacterial growth was observed. To test the bacteriostatic or bacteriocidal activity of the peptides, 50 µl solution from the highest concentrated well (i.e., 50 µM) was transferred to a test tube containing 4 mL sterile MHB and incubated for 24 h at 37 °C under constant stirring. Streaking of the same solution was done on MHA containing petri dishes and incubated for 24 h at 37 °C to confirm the morphology of the colonies grown. Experiments were performed in triplicates.

[3] = system: Gram-positive Staphylococcus carnosus CCM 4838T; type: cell-based; settings: for Antibacterial activity (MIC in µM) S. carnosus: CCM 4838
Procedure: as §1, §2

[4] = system: human red blood cells (HRBCs); type: cell-based
Procedure: as §1
Hemolysis assay. Hemolytic toxicity of the peptides was evaluated from their ability to lyse the fresh human red blood cells (HRBCs) collected from the University Hospital (Brno, Czech Republic). To obtain the erythrocyte pellets, the blood samples were centrifuged twice at 700×g and subsequently, once at 1000×g, each for 8 min. at 4 °C, which was followed by thorough washing with PBS. Resuspension of the pellets was done in PBS to obtain 0.5% (vol/vol) RBC suspension. In a well plate with 96 V-shaped bottom wells, the peptides were added in a dilution series from 0.1 to 50 µM concentration. Subsequently, HRBC suspension was added in each well. Negative control wells contained only PBS and HRBC suspension without any peptide (i.e., 0% lysis), and positive control wells included 5 µM melittin in the HRBC suspension. After incubation for 1 h at 37 °C, the well plates were centrifuged at 1000×g for 10 min. at 4 °C. Subsequently, the supernatant was collected in a flat-bottomed well plate and the optical density of the released hemoglobin was measured for each well at 415 nm wavelength. The calculated absorbances from the wells were then normalized against the averaged absorbances of the positive and the negative control wells. EC50 value was calculated from the normalized absorbances indicating 50% hemolysis of HRBCs. Experiments were performed in triplicates with three independent blood samples.

[5] = hemolysis assay, HRBCs, read-out: Toxicity (EC50 in µM) HRBCs

H-HHHHLKKILKKLFQFINQLDNQLQDIHHHH-OH [KDFA2i+2-Hter]
extent of calcein leakage at peptide-to-lipid (P:L) ratio 1:100 ([1]; POPC:POPG (1:1) LUVs): 100% | Extent of leakage (in percentage) at increasing peptide-to-lipid ratio (mol/mol) 1:100 [1]: 102.5 ± 1.2 percentage | antimicrobial activity against E. coli (in words) [2]: did not show antibacterial activity | antimicrobial activity against S. carnosus (in words) [3]: did not show antibacterial activity | Antibacterial activity (MIC in µM) S. carnosus [3]: > 50 µM

H-KKKKVKKILKKLIQLIDQLDKDLQDIKKKK-NH2 [KD16+9-NH2]
calcein / vesicle leakage, pore-forming ability (in words) ([1]; POPC:POPG (1:1) LUVs): resulted in vesicle leakage | Extent of leakage (in percentage) at increasing peptide-to-lipid ratio (mol/mol) 1:10 [1]: 99.1 ± 2.5 percentage | Extent of leakage (in percentage) at increasing peptide-to-lipid ratio (mol/mol) 1:20 [1]: 93.1 ± 0.7 percentage | Extent of leakage (in percentage) at increasing peptide-to-lipid ratio (mol/mol) 1:50 [1]: 83.0 ± 1.5 percentage | Extent of leakage (in percentage) at increasing peptide-to-lipid ratio (mol/mol) 1:100 [1]: 58.8 ± 4.8 percentage | EC50 [4]: > 50 µM

KKKKKLKKILKKLFQFINQLDNQLQDIKKKKK [KDFA2i+12]
Antibacterial activity (MIC in µM) E. coli TOP10 [2]: 0.4 µM | Antibacterial activity (MIC in µM) S. carnosus [3]: 0.4 µM | EC50 [4, 5]: > 50 µM

KKKKLDDILDDLFQFIKQLKNKLQKIKKKK-NH2 [DKFC16+9-NH2]
calcein / vesicle leakage, pore-forming ability (in words) ([1]; POPC:POPG (1:1) LUVs): resulted in vesicle leakage | Extent of leakage (in percentage) at increasing peptide-to-lipid ratio (mol/mol) 1:20 [1]: 103.3 ± 0.9 percentage | Extent of leakage (in percentage) at increasing peptide-to-lipid ratio (mol/mol) 1:50 [1]: 89.5 ± 3.3 percentage | Extent of leakage (in percentage) at increasing peptide-to-lipid ratio (mol/mol) 1:100 [1]: 50.1 ± 4.1 percentage | antimicrobial activity against E. coli (in words) [2]: did not show activity against E. coli | Antibacterial activity (MIC in µM) E. coli TOP10 [2]: > 50 µM | antimicrobial activity against S. carnosus (in words) [3]: found active against S. carnosus | Antibacterial activity (MIC in µM) S. carnosus [3]: 1.6 µM | EC50 [4]: > 50 µM

KKKKLKKILKKLFQFINQLDNQLQDFKQNK [KDFA2i+8(I26F)]
Antibacterial activity (MIC in µM) E. coli TOP10 [2]: 0.4 µM | Antibacterial activity (MIC in µM) S. carnosus [3]: 0.8 µM | EC50 [4, 5]: > 50 µM

KKKKLKKILKKLFQFINQLDNQLQDIKQNK [KDFA2i+8]
Antibacterial activity (MIC in µM) E. coli TOP10 [2]: 0.2 µM | Antibacterial activity (MIC in µM) S. carnosus [3]: 0.4 µM | EC50 [4, 5]: > 50 µM

KKKKLKKILKKLFQFINQLENQLQEIKQNK-NH2 [KEFA2i+9-NH2]
Antibacterial activity (MIC in µM) E. coli TOP10 [2]: 0.8 µM | Antibacterial activity (MIC in µM) S. carnosus [3]: 0.8 µM | EC50 [4, 5]: > 50 µM

KKKKLKKILKKLWQWINQLDNQLQDIKQNK-NH2 [KDWA2i+9-NH2]
Antibacterial activity (MIC in µM) E. coli TOP10 [2]: 0.4 µM | Antibacterial activity (MIC in µM) S. carnosus [3]: 0.8 µM | EC50 [4, 5]: > 50 µM

NQKKLKKILNQLFQFINQLDNQLQDIKKQN [KDFA2]
Extent of leakage (in percentage) at increasing peptide-to-lipid ratio (mol/mol) 1:50 [1]: 100.2 ± 0.2 percentage | Extent of leakage (in percentage) at increasing peptide-to-lipid ratio (mol/mol) 1:100 [1]: 82.8 ± 1.5 percentage | MIC against E. coli [2]: 50 µM | Antibacterial activity (MIC in µM) E. coli TOP10 [2]: 50 µM | EC50 [4]: > 50 µM

NQKKLRRILRRLFQFIDQLDNDLQDIKKQN [RDFC16Kter]
Extent of leakage (in percentage) at increasing peptide-to-lipid ratio (mol/mol) 1:20 [1]: 102.2 ± 0.5 percentage | Extent of leakage (in percentage) at increasing peptide-to-lipid ratio (mol/mol) 1:50 [1]: 85.3 ± 4.3 percentage | Extent of leakage (in percentage) at increasing peptide-to-lipid ratio (mol/mol) 1:100 [1]: 64.5 ± 6.1 percentage | MIC against E. coli [2]: 50 µM | Antibacterial activity (MIC in µM) E. coli TOP10 [2]: 50 µM | EC50 [4]: > 50 µM

NQRRLQNILRRLFQFIDQLINDLQNIRRQN [RDFA5]
Extent of leakage (in percentage) at increasing peptide-to-lipid ratio (mol/mol) 1:10 [1]: Aggregated peptides and no leakage | Extent of leakage (in percentage) at increasing peptide-to-lipid ratio (mol/mol) 1:20 [1]: Aggregated peptides and no leakage | Extent of leakage (in percentage) at increasing peptide-to-lipid ratio (mol/mol) 1:50 [1]: Aggregated peptides and no leakage | Extent of leakage (in percentage) at increasing peptide-to-lipid ratio (mol/mol) 1:100 [1]: Aggregated peptides and no leakage

NQRRLQNILRRLFQFINQLIDDLQNIRRQN [RDFA7]
Extent of leakage (in percentage) at increasing peptide-to-lipid ratio (mol/mol) 1:10 [1]: Aggregated peptides and no leakage | Extent of leakage (in percentage) at increasing peptide-to-lipid ratio (mol/mol) 1:20 [1]: Aggregated peptides and no leakage | Extent of leakage (in percentage) at increasing peptide-to-lipid ratio (mol/mol) 1:50 [1]: Aggregated peptides and no leakage | Extent of leakage (in percentage) at increasing peptide-to-lipid ratio (mol/mol) 1:100 [1]: Aggregated peptides and no leakage

NQRRLRRILNQLFQFINQLDNQLQDIRQNR [RDFA2i]
Extent of leakage (in percentage) at increasing peptide-to-lipid ratio (mol/mol) 1:10 [1]: Aggregated peptides and no leakage | Extent of leakage (in percentage) at increasing peptide-to-lipid ratio (mol/mol) 1:20 [1]: Aggregated peptides and no leakage | Extent of leakage (in percentage) at increasing peptide-to-lipid ratio (mol/mol) 1:50 [1]: Aggregated peptides and no leakage | Extent of leakage (in percentage) at increasing peptide-to-lipid ratio (mol/mol) 1:100 [1]: Aggregated peptides and no leakage

NQRRLRRILNQLFQFINQLDNQLQDIRRQN [RDFA2]
Extent of leakage (in percentage) at increasing peptide-to-lipid ratio (mol/mol) 1:20 [1]: 102.9 ± 0.9 percentage | Extent of leakage (in percentage) at increasing peptide-to-lipid ratio (mol/mol) 1:50 [1]: 97.4 ± 4.5 percentage | Extent of leakage (in percentage) at increasing peptide-to-lipid ratio (mol/mol) 1:100 [1]: 80.2 ± 8.2 percentage | Antibacterial activity (MIC in µM) E. coli TOP10 [2]: > 50 µM | EC50 [4]: > 50 µM

NQRRLRRILNQLWQWINQLDNQLQDIRRQN [RDWA2]
Extent of leakage (in percentage) at increasing peptide-to-lipid ratio (mol/mol) 1:10 [1]: Aggregated peptides and no leakage | Extent of leakage (in percentage) at increasing peptide-to-lipid ratio (mol/mol) 1:20 [1]: Aggregated peptides and no leakage | Extent of leakage (in percentage) at increasing peptide-to-lipid ratio (mol/mol) 1:50 [1]: Aggregated peptides and no leakage | Extent of leakage (in percentage) at increasing peptide-to-lipid ratio (mol/mol) 1:100 [1]: Aggregated peptides and no leakage

NQRRLRRILRRLFQFIDQLDNDLQDIRRQN [RDFC16]
Extent of leakage (in percentage) at increasing peptide-to-lipid ratio (mol/mol) 1:10 [1]: Aggregated peptides and no leakage | Extent of leakage (in percentage) at increasing peptide-to-lipid ratio (mol/mol) 1:20 [1]: Aggregated peptides and no leakage | Extent of leakage (in percentage) at increasing peptide-to-lipid ratio (mol/mol) 1:50 [1]: Aggregated peptides and no leakage | Extent of leakage (in percentage) at increasing peptide-to-lipid ratio (mol/mol) 1:100 [1]: Aggregated peptides and no leakage

NQRRLRRILRRLFQFINQLIDDLDDIRRQN [RDFC21]
Extent of leakage (in percentage) at increasing peptide-to-lipid ratio (mol/mol) 1:10 [1]: Aggregated peptides and no leakage | Extent of leakage (in percentage) at increasing peptide-to-lipid ratio (mol/mol) 1:20 [1]: Aggregated peptides and no leakage | Extent of leakage (in percentage) at increasing peptide-to-lipid ratio (mol/mol) 1:50 [1]: Aggregated peptides and no leakage | Extent of leakage (in percentage) at increasing peptide-to-lipid ratio (mol/mol) 1:100 [1]: Aggregated peptides and no leakage

NQRRLRRILRRLWQWINQLIDDLDDIRRQN [RDWC21]
Extent of leakage (in percentage) at increasing peptide-to-lipid ratio (mol/mol) 1:10 [1]: Aggregated peptides and no leakage | Extent of leakage (in percentage) at increasing peptide-to-lipid ratio (mol/mol) 1:20 [1]: Aggregated peptides and no leakage | Extent of leakage (in percentage) at increasing peptide-to-lipid ratio (mol/mol) 1:50 [1]: Aggregated peptides and no leakage | Extent of leakage (in percentage) at increasing peptide-to-lipid ratio (mol/mol) 1:100 [1]: Aggregated peptides and no leakage
